Patent US20220056019A1, “FARNESOID X RECEPTOR AGONISTS AND USES THEREOF” (Metacrine, Inc., priority 2018, published 2022)

Molecular target: T1, hFXR (Homo sapiens, UniProt Q96RI1)
T1 construct: expressed in transfected cells; host or cells: CV-1 cells
T1 sequence (Q96RI1 1-486): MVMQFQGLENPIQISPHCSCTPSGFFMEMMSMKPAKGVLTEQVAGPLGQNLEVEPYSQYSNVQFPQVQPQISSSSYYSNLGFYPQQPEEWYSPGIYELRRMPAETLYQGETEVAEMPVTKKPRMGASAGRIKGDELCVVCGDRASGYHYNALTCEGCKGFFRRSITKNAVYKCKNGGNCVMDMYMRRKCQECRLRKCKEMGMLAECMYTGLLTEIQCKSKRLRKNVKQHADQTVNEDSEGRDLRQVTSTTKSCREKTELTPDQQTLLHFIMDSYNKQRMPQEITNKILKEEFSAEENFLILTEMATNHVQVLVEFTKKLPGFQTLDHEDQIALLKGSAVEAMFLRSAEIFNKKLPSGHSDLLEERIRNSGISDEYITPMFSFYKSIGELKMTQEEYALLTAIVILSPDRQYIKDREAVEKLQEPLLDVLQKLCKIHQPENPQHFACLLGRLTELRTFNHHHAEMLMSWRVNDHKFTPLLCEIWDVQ
T1 sequence (P19793 1-462 partner): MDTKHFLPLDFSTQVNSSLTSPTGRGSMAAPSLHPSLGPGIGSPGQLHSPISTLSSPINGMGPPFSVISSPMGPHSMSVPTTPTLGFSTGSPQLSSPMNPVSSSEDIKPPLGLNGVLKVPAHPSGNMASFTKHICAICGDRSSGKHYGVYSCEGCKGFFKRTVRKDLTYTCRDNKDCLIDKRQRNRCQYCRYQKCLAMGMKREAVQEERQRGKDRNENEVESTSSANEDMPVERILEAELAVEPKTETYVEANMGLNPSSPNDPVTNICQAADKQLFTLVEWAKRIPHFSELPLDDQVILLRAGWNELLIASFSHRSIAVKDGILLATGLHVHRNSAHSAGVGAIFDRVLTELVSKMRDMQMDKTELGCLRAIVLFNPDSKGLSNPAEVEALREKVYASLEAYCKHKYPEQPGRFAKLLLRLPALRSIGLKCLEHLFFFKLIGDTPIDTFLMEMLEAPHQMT
Assay: In Vitro FXR Assay (TK): TK-ECRE-luc reporter in transfected CV-1 cells
Format: cell-based
Conditions: 18 hrs incubation, luminescence
Summary of the method: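 Luciferase read-out from lysed CV-1 cells carrying transfected hFXR, hRXR, TK-ECRE-luc and pCMX-YFP. Test compounds, DMSO serial dilutions, were incubated with the cells for 18 h before lysis. Cells grew in charcoal-stripped serum medium.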

In the case of `COc1ccc(C23CCC(CN(c4cc(-c5cnc(C6CC6)s5)ccn4)C(=O)[C@H]4CC[C@H](OC(=O)N5CC(CO)C5)CC4)(CC2)CC3)cc1C` [Compound 4.28, 4-((4-(2-Cyclopropylthiazol-5-yl)pyridin-2-yl)((4-(4-methoxy-3-methylphenyl)bicyclo[2.2.2]octan-1-yl)methyl)carbamoyl)(trans-cyclohexyl) 3-(hydroxymethyl)azetidine-1-carboxylate], the EC50 is reported as ≤ 50 nM.

With `COc1c(F)cc(C23CCC(CN(c4cc(-c5cnn(C(C)C)c5)ccn4)C(=O)[C@H]4CC[C@H](OC(=O)N5CC(O)C5)CC4)(CC2)CC3)cc1F` [Compound 26.06, 4-(((4-(3,5-Difluoro-4-methoxyphenyl)bicyclo[2.2.2]octan-1-yl)methyl)(4-(1-isopropyl-1H-pyrazol-4-yl)pyridin-2-yl)carbamoyl)cyclohexyl trans-3-hydroxyazetidine-1-carboxylate] the EC50 was ≤ 50 nM.

For `COCCOC(=O)N[C@H]1CC[C@H](C(=O)N(CC23CCC(c4ccc(OC)c(C)c4)(CC2)CC3)c2cc(-c3cnn(C(C)C)c3)ccn2)CC1` [Compound 7.01, (trans)-2-Methoxyethyl (4-((4-(1-isopropyl-1H-pyrazol-4-yl)pyridin-2-yl)((4-(4-methoxy-3-methylphenyl)bicyclo[2.2.2]octan-1-yl)methyl)carbamoyl)cyclohexyl) carbamate], the EC50 was ≤ 50 nM.

Compound `COc1ccc([C@H]2CC[C@H](CN(c3cccc(-c4cnn(C(C)C)c4)c3)C(=O)[C@H]3CC[C@H](NC(=O)OC4CN(C)C4)CC3)CC2)cc1C` [Compound 6.07, 1-Methylazetidin-3-yl (trans-4-((3-(1-isopropyl-1H-pyrazol-4-yl)phenyl)((trans-4-(4-methoxy-3-methylphenyl)cyclohexyl)meth-yl)carbamoyl)cyclohexyl)carbamate] has an EC50 of 50 to 1000 nM.

With `CCC(=O)NC[C@H]1CC[C@H](C(=O)N(C[C@H]2CC[C@H](c3ccc(OC)c(C)c3)CC2)c2cccc(-c3cnn(C(C)C)c3)c2)CC1` [Compound 12.01, (trans)-N-(3-(1-Isopropyl-1H-pyrazol-4-yl)phenyl)-N-(((trans)-4-(4-methoxy-3-methylphenyl)cyclohexyl)methyl)-4-(propionamidomethyl)cyclohexane-carboxamide] the EC50 was 50 to 1000 nM.

In the case of `COc1ccc(C23CCC(CN(c4cc(-n5ccc(C(C)C)n5)ccn4)C(=O)[C@H]4CC[C@H](OC(=O)N5CC(O)C5)CC4)(CC2)CC3)cc1C` [Compound 23.15, 4-((4-(3-Isopropyl-1H-pyrazol-1-yl)pyridin-2-yl)((4-(4-methoxy-3-methylphenyl)bicyclo[2.2.2]octan-1-yl)methyl)carbamoyl)cyclo-hexyl trans-3-hydroxyazetidine-1-carboxylate], the EC50 is reported as ≤ 50 nM.

For `COc1ccc([C@H]2CC[C@H](CN(c3cccc(-c4cnn(C(C)C)c4)c3)C(=O)[C@H]3CC[C@H](OC(=O)NCC(F)(F)CO)CC3)CC2)cc1C` [Compound 5.02, trans-4-((3-(1-Isopropyl-1H-pyrazol-4-yl)phenyl)(((trans)-4-(4-methoxy-3-methylphenyl)cyclohexyl)methyl)carbamoyl)cyclohexyl (2,2-difluoro-3-hydroxypropyl)carbamate], the EC50 was ≤ 50 nM.

For `COc1ccc(C23CCC(CN(c4cc(-c5cnn(C(C)C)c5)ccn4)C(=O)[C@H]4CC[C@H](OC(=O)N5CC(N(C)C)C5)CC4)(CC2)CC3)cc1C` [Compound 4.12, 4-((4-(1-Isopropyl-1H-pyrazol-4-yl)pyridin-2-yl)((4-(4-methoxy-3-methylphenyl)bicyclo [2.2.2]octan-1-yl)methyl)carbamoyl)cyclohexyl 3-(dimethylamino) azetidine-trans-1-carboxylate], the EC50 was ≤ 50 nM.

`COc1ccc(C23CCC(CN(c4cc(-c5cnn(C(C)C)c5)ccn4)C(=O)[C@H]4CC[C@H](NC(=O)C(C)(C)O)CC4)(CC2)CC3)cc1C` [Compound 9.03] was tested, and the EC50 was ≤ 50 nM.

`COc1ccc(C23CCC(CN(c4cc(-c5cnn(C6CCC6)c5)ccn4)C(=O)[C@H]4CC[C@H](OC(=O)N5CC(O)C5)CC4)(CC2)CC3)cc1C` [Compound 23.08, 4-((4-(1-Cyclobutyl-1H-pyrazol-4-yl)pyridin-2-yl)((4-(4-methoxy-3-methylphenyl)bicyclo[2.2.2]octan-1-yl)methyl)carbamoyl)(trans-cyclohexyl) 3-hydroxyazetidine-1-carboxylate] was tested, and the EC50 was ≤ 50 nM.

In the case of `COc1ccc([C@H]2CC[C@H](CN(c3cc(-c4cnn(C(C)C)c4)ccn3)C(=O)[C@H]3CC[C@H](OC(=O)N4CCOCC4)CC3)CC2)cc1C` [Compound 2.16, trans-4-((4-(1-Isopropyl-1H-pyrazol-4-yl)pyridin-2-yl)(((trans)-4-(4-methoxy-3-methylphenyl)cyclohexyl)methyl)carbamoyl)cyclohexyl morpholine-4-carboxylate], the EC50 is reported as ≤ 50 nM.

For `COc1ccc(C23CCC(CN(c4cc(-c5cnn(C(C)C)c5)c(F)cn4)C(=O)[C@H]4CC[C@H](OC(=O)N5CC(O)C5)CC4)(CC2)CC3)cc1C` [Compound 26.02, 4-((5-Fluoro-4-(1-isopropyl-1H-pyrazol-4-yl)pyridin-2-yl)((4-(4-methoxy-3-methylphenyl)bicyclo[2.2.2]octan-1-yl)methyl)carbamoyl)(trans-cyclohexyl) 3-hydroxyazetidine-1-carboxylate], the EC50 was ≤ 50 nM.

In the case of `COc1ccc([C@H]2CC[C@H](CN(c3cc(-c4cnn(CCF)c4)ccn3)C(=O)[C@H]3CC[C@H](OC(=O)N4CC(O)C4)CC3)CC2)cc1C` [Compound 2.23, trans-4-((4-(1-(2-Fluoroethyl)-1H-pyrazol-4-yl)pyridin-2-yl) ((trans-4-(4-methoxy-3-methylphenyl)cyclohexyl)methyl)carbamoyl) cyclohexyl 3-hydroxyazetidine-1-carboxylate], the EC50 is reported as ≤ 50 nM.

`COc1ccc([C@H]2CC[C@H](CN(c3cc(-c4coc(C5CC5)n4)ccn3)C(=O)[C@H]3CC[C@H](OC(=O)NCC(C)(C)O)CC3)CC2)cc1C` [Compound 2.02, trans-4-((4-(2-Cyclopropyloxazol-4-yl)pyridin-2-yl)((trans-4-(4-methoxy-3-methylphenyl)cyclohexyl)methyl)carbamoyl) cyclohexyl(2-hydroxy-2-methylpropyl)carbamate] was tested, and the EC50 was ≤ 50 nM.

`COc1ccc([C@H]2CC[C@H](CN(c3cc(-c4cnn(C(C)C)c4)ccn3)C(=O)[C@H]3CC[C@H](OC(=O)NC4COC4)CC3)CC2)cc1C` [Compound 2.51] was tested, and the EC50 was ≤ 50 nM.

For `CCOc1ncc(-c2ccnc(N(C[C@H]3CC[C@H](c4ccc(OC)c(C)c4)CC3)C(=O)[C@H]3CC[C@H](OC(=O)N4CC(O)C4)CC3)c2)s1` [Compound 2.43, trans-4-((4-(2-Ethoxythiazol-5-yl)pyridin-2-yl)((trans-4-(4-methoxy-3-methylphenyl)cyclohexyl)methyl)carbamoyl)cyclohexyl 3-hydroxyazetidine-1-carboxylate], the EC50 was ≤ 50 nM.

`COc1ccc(C23CCC(CN(c4cc(-c5cc(C(C)C)on5)ccn4)C(=O)[C@H]4CC[C@H](OC(=O)N5CC(O)C5)CC4)(CC2)CC3)cc1C` [Compound 4.27, 4-((4-(5-Isopropylisoxazol-3-yl)pyridin-2-yl)((4-(4-methoxy-3-methylphenyl)bicyclo[2.2.2]octan-1-yl)methyl)carbamoyl) cyclohexyl 3-hydroxyazetidine-trans-1-carboxylate] was tested, and the EC50 was ≤ 50 nM.

`COc1ccc([C@H]2CC[C@H](CN(c3cccc(-c4cnn(C(C)C)c4)c3)C(=O)[C@H]3CC[C@H](OC(=O)NCC(C)(C)O)CC3)CC2)cc1C#N` [Compound 5.09, trans-4-((((trans)-4-(3-Cyano-4-methoxyphenyl)cyclohexyl)methyl)(3-(1-isopropyl-1H-pyrazol-4-yl)phenyl)carbamoyl) cyclohexyl(2-hydroxy-2-methylpropyl)carbamate] was tested, and the EC50 was ≤ 50 nM.

`COc1ccc(C23CCC(CN(c4cc(-c5cnc(C(C)C)s5)ccn4)C(=O)[C@H]4CC[C@H](OC(=O)NC5COC5)CC4)(CC2)CC3)cc1C` [Compound 4.35, 4-((4-(2-Isopropylthiazol-5-yl)pyridin-2-yl)((4-(4-methoxy-3-methylphenyl)bicyclo[2.2.2]octan-1-yl)methyl)carbamoyl)(trans-cyclohexyl) oxetan-3-ylcarbamate] was tested, and the EC50 was ≤ 50 nM.

With `COc1ccc(C23CCC(CN(c4ccc(F)c(-c5cnn(C(C)C)c5)c4)C(=O)[C@H]4CC[C@H](OC(=O)N5CC(C#N)C5)CC4)(CC2)CC3)cc1C` [Compound 25.11, 4-((4-Fluoro-3-(1-isopropyl-1H-pyrazol-4-yl)phenyl)((4-(4-methoxy-3-methylphenyl)bicyclo[2.2.2]octan-1-yl)methyl)carbamoyl)cyclohexyl trans-3-cyanoazetidine-1-carboxylate] the EC50 was ≤ 50 nM.
